Biological target: T1, hTAS1R1 D147A/rTAS1R3 (UniProt Q7RTX1+Q923K1, D147A)
T1 construct: UniProtKB number Q7RTX1–1); The cDNA coding region of rTAS1R3 was synthesized with optimized-codon usage for human expression; expressed in transfected cells; host or cells: HEK293T/17
T1 sequence (Q7RTX1 21-841 D147A): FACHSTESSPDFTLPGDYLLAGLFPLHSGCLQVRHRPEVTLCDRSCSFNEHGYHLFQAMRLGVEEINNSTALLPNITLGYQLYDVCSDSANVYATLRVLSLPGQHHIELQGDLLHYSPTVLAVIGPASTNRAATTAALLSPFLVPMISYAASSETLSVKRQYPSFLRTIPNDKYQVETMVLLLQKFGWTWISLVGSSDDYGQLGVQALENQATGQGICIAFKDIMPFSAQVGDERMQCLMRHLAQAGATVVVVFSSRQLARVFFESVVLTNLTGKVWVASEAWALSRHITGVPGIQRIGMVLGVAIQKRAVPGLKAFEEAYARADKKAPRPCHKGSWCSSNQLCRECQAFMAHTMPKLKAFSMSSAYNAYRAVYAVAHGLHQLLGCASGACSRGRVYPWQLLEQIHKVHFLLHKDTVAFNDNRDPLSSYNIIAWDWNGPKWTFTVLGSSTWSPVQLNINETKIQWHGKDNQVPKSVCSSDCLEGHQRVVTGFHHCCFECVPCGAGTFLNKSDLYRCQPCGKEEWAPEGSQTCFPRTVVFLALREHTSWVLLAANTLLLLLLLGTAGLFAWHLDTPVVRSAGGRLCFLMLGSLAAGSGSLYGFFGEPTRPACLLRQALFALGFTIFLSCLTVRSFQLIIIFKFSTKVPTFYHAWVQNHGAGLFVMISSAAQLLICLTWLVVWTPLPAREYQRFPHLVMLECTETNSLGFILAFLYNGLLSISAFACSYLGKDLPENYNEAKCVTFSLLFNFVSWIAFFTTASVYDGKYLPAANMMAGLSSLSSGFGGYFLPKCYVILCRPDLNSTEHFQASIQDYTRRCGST
T1 sequence (Q923K1 21-858): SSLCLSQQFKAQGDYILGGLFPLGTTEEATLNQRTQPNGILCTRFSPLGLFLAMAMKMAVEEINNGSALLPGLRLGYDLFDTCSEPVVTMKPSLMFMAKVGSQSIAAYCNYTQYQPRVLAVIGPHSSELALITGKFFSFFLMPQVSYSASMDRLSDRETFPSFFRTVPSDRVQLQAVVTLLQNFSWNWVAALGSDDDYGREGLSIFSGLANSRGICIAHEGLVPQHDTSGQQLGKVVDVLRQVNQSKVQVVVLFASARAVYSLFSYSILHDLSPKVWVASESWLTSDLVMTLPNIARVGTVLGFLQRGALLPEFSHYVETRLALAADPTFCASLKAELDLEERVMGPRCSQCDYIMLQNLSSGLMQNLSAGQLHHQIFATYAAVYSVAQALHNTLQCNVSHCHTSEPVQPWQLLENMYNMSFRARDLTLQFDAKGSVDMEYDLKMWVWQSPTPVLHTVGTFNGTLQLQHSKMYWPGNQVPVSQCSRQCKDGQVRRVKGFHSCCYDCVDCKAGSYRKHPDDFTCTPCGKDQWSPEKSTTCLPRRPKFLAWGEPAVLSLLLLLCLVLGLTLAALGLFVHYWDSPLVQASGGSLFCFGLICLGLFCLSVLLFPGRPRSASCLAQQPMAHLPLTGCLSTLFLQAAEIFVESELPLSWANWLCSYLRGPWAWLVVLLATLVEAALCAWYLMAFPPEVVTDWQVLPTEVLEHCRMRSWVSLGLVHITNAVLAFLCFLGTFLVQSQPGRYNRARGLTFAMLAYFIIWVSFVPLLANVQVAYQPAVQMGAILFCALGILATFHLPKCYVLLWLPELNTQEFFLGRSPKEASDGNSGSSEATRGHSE
Assay: Calcium assay, hTAS1R1 mutant co-expressed with rTAS1R3
Type: cell-based, human, rat

SMILES	EC50 [mM]	effect of the added compound (1 mM) on the response to L-Glu (D147A)	response to the agonist alone, vs WT (D147A)
N[C@@H](CCC(=O)N[C@@H](CS)C(=O)NCC(=O)O)C(=O)O [GSH, γ-L-glutamyl-L-cysteinyl-glycine]	> 30	did not affect	fully abolished
CCCC(CCC)NC(=O)c1ccc2c(c1)OCO2 [S807, N-(heptan-4-yl)benzo[d][1,3]dioxole-5-carboxamide, reference compound]			strongly affected
